The data set can be described thus: Solubility of N-fluorocinchonidinium tetrafluoroborate in solvents. In kind it is physicochemical. Particulars: acetonitrile. The procedure:
^19F NMR (282 MHz, CD3CN/CCl3F): 37.71 (s, 1F); −154.52 (s, 1F); −154.60 (s, 3F). (CD3CN/TFA): 118.35 (s, 1F); −74.12 (s, 1F); −74.17 (s, 3F). FTIR: (ν N—F) 927 cm^−1 Melting point: 189+/−2° C. […] MS (FAB^+, glycerol) 313 (cation^+, 18%) 295 (cation-H2O, 100) . TLC: acetone/heptane: 9/1; Rf=0.3.

Structures are written as SMILES.

As for `C=CC1C[N+]2(F)CCC1CC2C(O)c1ccnc2ccccc12.F[B-](F)(F)F` (stereo not shown) [N-fluorocinchonidinium Tetrafluoroborate], the Solubility result is “ca. 200 mg/ml”.

The values are drawn from patent US20050075501A1, “Ammonium compounds bearing and electrophilic fluorine, reagent containing same, method using same and synthesis method for obtaining them” (priority 2000, published 2005).
